# Legend:
# [1] = Plasma testosterone level after 21 days of testosterone pellet treatment (LC-MS); format: in vivo, Sprague Dawley rats; details: Sprague Dawley, rat, sc, 7.5 mg 60-day release testosterone pellet s.c.
# Method: (§1) Male and female Sprague Dawley (SD) rats, ovariectomized (OVX) females, and castrated (CST) males were obtained from Charles River (Wilmington, MA, USA) at 8 weeks of age. The animals were housed under controlled temperature and humidity with an artificial 12 h light/dark cycle, and food and water were available ad libitum. The animals were acclimatized for at least one week before experiments. Hormone treatment was conducted by implanting OVX female and CST male rats subcutaneously with 60-day release pellets containing 7.5 mg testosterone or corresponding placebo pellets (Innovative Research of America) at 10 weeks of age. After 21 days of hormone exposure, rats were utilized in toxicokinetic studies. Age-matched male and female rats were used as control groups. Female rats in the estrus stage were selected for the study. Estrus cycle stages of female rats were monitored daily by vaginal lavage smear, as described in previously published literature. The Institutional Animal Care and Use Committee (IACUC) at the University of the Pacific approved all experiments.
# Testosterone plasma concentrations were quantified using a validated LC-MS assay, as described previously. […] The same LC/MS/MS equipment was used for quantification, as mentioned above. […]
# [2] = GHB toxicokinetic study, i.v. bolus, plasma and urine up to 8 h, noncompartmental analysis; format: in vivo, Sprague Dawley rats; details: 1 mg/kg AR-C 155858 iv 5 min after 1500 mg/kg GHB iv vs GHB alone
# Method: as §1
# (§2) Jugular vein cannulas were surgically implanted under anesthesia with ketamine/xylazine. Cannulas were flushed daily with heparinized saline to maintain patency. Rats were allowed a minimum of 72 h for recovery from surgery before the experiments were conducted. GHB was administered intravenously as a 1000 mg/kg i.v. bolus or 1500 mg/kg iv bolus with or without AR-C155858 (1 mg/kg i.v. bolus) via a jugular vein cannula to the animals at 13 weeks of age (N = 5–7 per group). Rats were dosed in metabolic cages with ad libitum access to water to allow for the concurrent collection of blood and urine samples for up to 8 h. GHB was administered as a 300 mg/mL solution in sterile water, and the time of administration was considered as time 0. AR-C155858 was administered as a 1 mg/mL solution in 10% cyclodextrin in normal saline 5 min after GHB administration. Blood samples (200 μL) were taken from the jugular vein cannula at different time points: 5, 10, 20, 30, 60, 90, 120, 180, 240, 270, 300, and 330 min for 1000 mg/kg and 10, 30, 60, 90, 120, 180, 240, 270, 300, 330, 360, and 390/480 min for 1500 mg/kg bolus with or without AR-C155858. Plasma samples were separated by centrifugation and stored at −20 °C. Urine samples were collected at 120, 240, and 360 min for 1000 mg/kg and 120, 240, and 390/480 min for 1500 mg/kg bolus with or without AR-C155858 post-dose; the total urine volume was determined, and the samples were stored at −20 °C.
# GHB in plasma and urine were quantified using a validated liquid chromatography/tandem mass spectrometry (LC/MS/MS) assay that was described previously. Briefly, for the preparation of plasma standards and quality controls (QCs), 5 μL of GHB-d6 and 5 μL of standard stock solution or QC stock solution were added to 45 μL of blank plasma. For each unknown plasma sample, 5 μL of GHB-d6 was added to 50 μL of plasma. Protein precipitation was then performed by the addition of 800 μL of acetonitrile with 0.1% formic acid, followed by centrifugation at 10,000 rpm for 20 min. 750 μL of the supernatant was transferred to a clean disposable glass tube and evaporated using a MultiVap Nitrogen Evaporator (Organomation, Berlin, MA, USA) under a nitrogen stream. Dried samples were reconstituted in 250 μL of 95:5 double-distilled water—acetonitrile with 0.1% acetic acid. For urine standards and QCs, 25 μL of blank urine, 5 μL of standard or QC stock solution, 5 μL of GHB-d6, and 465 μL of double-distilled water were mixed. For unknown urine samples, 25 μL of the sample was added to 5 μL of GHB-d6 and 470 μL of double-distilled water. The same LC/MS/MS method was used for GHB plasma and urine analyses. LC/MS/MS equipment consisted of an Agilent 1200 series UPLC consisting of an online degasser, binary pump, and autosampler (Agilent Technologies, Santa Clara, CA, USA) connected to a Agilent 6460 Triple Quad Mass Spectrometer. […]
# Sprague Dawley (SD) rats = assay: Sedative/hypnotic effect (sleep time, RRR-LRR) after i.v. GHB; format: in vivo
# Method: as §2
# The sedative/hypnotic effects (sleep time) were determined, as described in a previous publication. The sedative/hypnotic duration effect of GHB was determined as the difference between the offset of the sedative/hypnotic effect (RRR) and the onset of the sedative/hypnotic effect (LRR).
# MCT2 = molecular target: MCT2; design: method as in PMID 19929853; details: cited from earlier work
# MCT4 = system: MCT4; design: method as in PMID 19929853; details: cited from earlier work
smiles,measurement,setting,value
"C[C@]12CC[C@H]3[C@@H](CCC4=CC(=O)CC[C@@]43C)[C@@H]1CC[C@@H]2O [Testosterone, testosterone]",concentration at 21 days,"[1]; female, OVX rats",6.22 ± 2.63 ng/mL
same,concentration at 21 days,"[1]; male, CST rats",5.44 ± 1.96 ng/mL
"Cc1n[nH]c(C)c1Cc1sc2c(c1C(=O)N1C[C@H](O)CO1)c(=O)n(C)c(=O)n2CC(C)C [AR-C 155858, 6-[(3,5-Dimethyl-1H-pyrazol-4-yl)methyl]-5-[[(4S)-4-hydroxy-2-isoxazolidinyl]carbonyl]-3-methyl-1-(2-methylpropyl)thieno [2,3-d]pyrimidine-2,4(1H,3H)-dione]",Effect of AR-C 155858 on GHB fe,[2],significantly increased fe in testosterone-treated animal groups
same,Effect of AR-C 155858 on GHB metabolic clearance,[2],"did not yield any statistically significant differences in metabolic clearance across all animal groups, except in intact males"
same,Effect of AR-C 155858 on GHB renal clearance,[2],"statistically significant increase in renal clearance across all animal groups, except for intact males"
same,Effect of AR-C155858 on GHB AUC,[2]; all animal groups,lower AUC
same,Effect of AR-C155858 on GHB total clearance,[2]; all animal groups,higher total clearance
same,Effect of AR-C 155858 on GHB sleep time,Sprague Dawley (SD) rats; 1 mg/kg AR-C 155858 iv 5 min after 1500 mg/kg GHB iv vs GHB alone,significant reduction in sleep time across all animal groups
same,Sleep time after AR-C 155858 administration,"Sprague Dawley (SD) rats; 1500 mg/kg GHB iv + 1 mg/kg AR-C 155858 iv 5 min after GHB, all populations",0 to 38 min
same,Ki,MCT2,~10 nM
same,Inhibitory effect on MCT4,MCT4,no inhibitory effect on MCT4
